Data on 13 compounds can be found in US6894052B1, “Diarylalkylpiperazines active on the lower urinary tract” (Recordati S.A. Chemical and Pharmaceutical Company, priority 1997, dated 2005).

pKi: −log10 of the molar value. Where a name gives a salt, the structure may show the parent alone. Read-outs that look alike come from different tables or passages of the source. Bounds are passed on as bounds.

For orientation: pKi means the negative decadic logarithm of the Ki, by convention in mol/L. As a reminder, the ED50 is the dose that gives a 50% effect, or the effect in half of the subjects.

Assay [1] has as its target α1 adrenergic receptors. The assay is described as follows: Radioreceptor binding to native α1 adrenergic receptors ([3H]prazosin, rat cerebral cortex membranes). How it is done: Binding studies on native α1 adrenergic receptors were carried out in membranes of rat cerebral cortex. Male Sprague Dawley rats (200-300 g, Charles River, Italy) were killed by cervical dislocation and cerebral cortexes were dissected and immediately frozen and stored at −70° C. until use. Tissue was homogenized (2×20 sec) in 50 volumes of cold 50 mM Tris-HCl buffer pH 7.4, using a Polytron homogenizer (speed 7). Homogenates were centrifuged at 48000×g for 10 min, resuspended in 50 volumes of the same buffer, incubated at 37° C. for 15 min and centrifuged and resuspended twice more. The final pellets were suspended in 100 volumes of 50 mM Tris-HCl buffer pH 7.4, containing 10 μM pargyline and 0.1% ascorbic acid. Membranes were incubated in a final volume of 1 ml for 30 min at 25° C. with 0.1-0.5 nM [^3H]prazosin, in the absence or presence of competing drugs; non-specific binding was determined in the presence of 10 μM phentolamine.
The incubation was stopped by addition of ice-cold 50 mM Tris-HCl buffer and rapid filtration through 0.2% polyethyleneimine-pretreated Whatman GF/B or Schleicher & Schuell GF52 filters. The filters were then washed with ice-cold buffer and the radioactivity retained on the filters counted by liquid scintillation spectrometry.
(§1) The inhibition of specific binding of the radioligands by the tested drugs was analyzed to estimate the IC50 value by using the non-linear curve-fitting program Allfit (De Lean et al., Am. J. Physiol. 235, E97-E102, 1978). The IC50 value is converted to an affinity constant (Ki) by the equation of Cheng & Prusoff (Cheng, Y. C.; Prusoff, W. H. Biochem. Pharmacol. 22, 3099-3108, 1973).

The target of assay [2] is T1, 5-HT2A serotonergic receptors (Rattus norvegicus, UniProt P14842).
T1 construct: from tissue; host or cells: cerebral cortex of male Sprague Dawley rats, membranes
Kind of assay: Radioreceptor binding to native 5-HT2A serotonergic receptors ([3H]ketanserin, rat cerebral cortex membranes). As for the experimental part:
Binding studies on native 5-HT2A serotonergic receptors (Craig A. and Kenneth J., Life Sci. 38, 117-127, 1986) were carried out in membranes of rat cerebral cortex. Male Sprague Dawley rats (200-300 g, S D Harlan/Nossan, Italy) were killed by cervical dislocation and cerebral cortexes were excised and immediately frozen in liquid nitrogen and stored at −70° C. until use. Tissues were homogenized (2×20 sec) in 50 volumes of cold 50 mM Tris-HCl buffer pH 7.4, using a Polytron homogenizer (speed 7). Homogenates were centrifuged at 49000×g for 10 min, resuspended in 50 volumes of the same buffer, incubated at 37° C. for 15 min and centrifuged and resuspended twice more. The final pellets were suspended in 100 volumes of 50 mM Tris-HCl buffer pH 7.7. Membranes were incubated in a final volume of 1 ml for 20 min at 37° C. with 0.7-1.3 nM [^3H]ketanserin (5-HT2A receptors), in absence or presence of competing drugs. Non-specific binding was determined in the presence of 2 μM ketanserin. The incubation was stopped by addition of ice-cold 50 mM Tris-HCl buffer and rapid filtration through 0.2% polyethyleneimine pretreated Whatman GF/B or Schleicher & Schuell GF52 filters. The filters are then washed with ice-cold buffer and the radioactivity retained on the filters was counted by liquid scintillation spectrometry.
as §1

Assay [3] has as its target T2, human 5-HT1A serotonergic receptor (Homo sapiens, UniProt P08908).
T2 construct: expressed in transfected cells; host or cells: HeLa (human), stably transfected; cell membranes
T2 sequence (P08908 1-422): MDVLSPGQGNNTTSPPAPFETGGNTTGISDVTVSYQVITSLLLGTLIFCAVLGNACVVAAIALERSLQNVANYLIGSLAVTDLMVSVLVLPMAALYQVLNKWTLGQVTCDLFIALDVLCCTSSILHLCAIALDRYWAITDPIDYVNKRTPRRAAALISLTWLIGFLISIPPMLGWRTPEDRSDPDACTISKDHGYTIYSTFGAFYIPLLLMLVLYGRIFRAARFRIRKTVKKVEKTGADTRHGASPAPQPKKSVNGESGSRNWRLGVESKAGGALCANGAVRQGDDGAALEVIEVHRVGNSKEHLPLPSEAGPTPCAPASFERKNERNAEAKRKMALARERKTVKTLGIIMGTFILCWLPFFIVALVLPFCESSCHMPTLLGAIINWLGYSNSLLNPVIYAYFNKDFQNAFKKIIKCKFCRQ
Kind of assay: Radioreceptor binding to recombinant human 5-HT1A receptors ([3H]8-OH-DPAT, HeLa cell membranes). As for the experimental part: Genomic clone G-21 coding for the human 5-HT1A serotonergic receptor is stably transfected in a human cell line (HeLa). HeLa cells were grown as monolayers in Dulbecco's modified Eagle's medium (DMEM), supplemented with 10% fetal calf serum and gentamicin ([…]), 5% CO2 at 37° C. Cells were detached from the growth flask at 95% confluence by a cell scraper and were lysed in ice-cold 5 mM Tris and 5 mM EDTA buffer (pH 7.4). Homogenates were centrifuged at 40000×g×20 min and pellets were resuspended in a small volume of ice-cold 5 mM Tris and 5 mM EDTA buffer (pH 7.4) and immediately frozen and stored at −70° C. until use. On the day of experiment, cell membranes were resuspended in binding buffer: 50 mM Tris HCl (pH 7.4), 2.5 mM MgCl2, 10 μM pargyline (Fargin et al., Nature 335, 358-360, 1988). Membranes were incubated in a final volume of 1 ml for 30 min at 30° C. with 0.2-1 nM [^3H]8-OH-DPAT, in absence or presence of competing drugs; non-specific binding was determined in the presence of 10 μM 5-HT. The incubation was stopped by addition of ice-cold Tris-HCl buffer and rapid filtration through 0.2% polyethyleneimine-pretreated Whatman GF/B or Schleieher & Schuell GF52 filters.
as §1

Assay [4] deals with rhythmic bladder voiding contractions. The assay is described as follows: Volume-induced rhythmic bladder voiding contractions in anaesthetized rats. It is filed as in vivo, rat. The settings on record: for ED10min: extrapolated dose inducing 10 min of disappearance of the contractions; for ED50: Rattus norvegicus. As for the experimental part:
Female Sprague Dawley rats weighing 225-275 g (Crl: CDo BR, Charles River Italia) were used. The animals were housed with free access to food and water and were maintained on a forced 12 h alternating light-dark cycle at 22-24° C. for at least one week, except during the experiment. The activity on the rhythmic bladder voiding contractions was evaluated according to the method of Dray (J. Pharmacol. Methods, 13:157, 1985), with some modifications as in Guarneri (Pharmacol. Res., 27:173, 1993). Briefly, rats were anesthetized by subcutaneous injection of 1.25 g/kg (5 ml/kg) urethane, after which the urinary bladder was catheterized via the urethra using PE 50 polyethylene tubing filled with physiological saline. The catheter was tied in place with a ligature around the external urethral orifice and was connected with conventional pressure transducers (Statham P23 ID/P23 XL). […] The bladder was then filled via the recording catheter by incremental volumes of warm (37° C.) saline until reflex bladder voiding contractions occurred (usually 0.8-1.5 ml). For intravenous (i.v.) injection of bioactive compounds, PE 50 polyethylene tubing filled with physiological saline was inserted into the jugular vein.
From the cystometrogram, the number of contractions recorded 15 min before (basal values) and after treatment, as well as the mean amplitude of these contractions (mean height of the peaks in mm Hg) was evaluated.
Since most compounds produced an effect that was relatively rapid in onset and led to a complete cessation of bladder contractions, bioactivity was conveniently estimated by measuring the duration of bladder quiescence (i.e., the duration of time during which no contractions occurred). Moreover, the number of animals tested showing a reduction in the number of contractions >30% of that observed in the basal period, was recorded. […] Also computed in this manner were extrapolated doses which induced a reduction of the number of contractions of greater than 30% in 50% of treated rats (ED50, frequency) by the method of Bliss (Bliss C. I., Quart. J. Pharm. Pharmacol. 11, 192-216, 1938). After the suppressive effects of drug injection wore off, the height of the contractile peaks was compared with the height of the peaks previously recorded after the control intravenous administration of vehicle. The potency of the tested compounds (ED50 value, the extrapolated doses inducing a 30% reduction of amplitude of the contractions in 50% of treated rats) was evaluated on a quantal basis by the method of Bliss (Bliss C. I., Quart. J. Pharm. Pharmacol. 11, 192-216, 1938).

Setting [5] is: rat cerebral cortex membranes, [3H]ketanserin, read-out: Ki 5-HT2A.
Setting [6] is: recombinant human receptor in HeLa membranes, [3H]8-OH-DPAT, read-out: Ki 5-HT1A.
The mark [7] stands for this setting: intravenous administration, anaesthetized rats.
The mark [8] stands for this setting: intravenous administration, anaesthetized rats, extrapolated dose inducing a reduction of the number of contractions >30% in 50% of treated rats, read-out: ED50 (frequency).
[9] abbreviates: intravenous administration, anaesthetized rats, extrapolated dose inducing 30% reduction of amplitude of the contractions in 50% of treated rats, n.a. = not active, no significant reduction of the height of peaks, read-out: ED50 (amplitude).

T1 sequence (P14842 whole entry): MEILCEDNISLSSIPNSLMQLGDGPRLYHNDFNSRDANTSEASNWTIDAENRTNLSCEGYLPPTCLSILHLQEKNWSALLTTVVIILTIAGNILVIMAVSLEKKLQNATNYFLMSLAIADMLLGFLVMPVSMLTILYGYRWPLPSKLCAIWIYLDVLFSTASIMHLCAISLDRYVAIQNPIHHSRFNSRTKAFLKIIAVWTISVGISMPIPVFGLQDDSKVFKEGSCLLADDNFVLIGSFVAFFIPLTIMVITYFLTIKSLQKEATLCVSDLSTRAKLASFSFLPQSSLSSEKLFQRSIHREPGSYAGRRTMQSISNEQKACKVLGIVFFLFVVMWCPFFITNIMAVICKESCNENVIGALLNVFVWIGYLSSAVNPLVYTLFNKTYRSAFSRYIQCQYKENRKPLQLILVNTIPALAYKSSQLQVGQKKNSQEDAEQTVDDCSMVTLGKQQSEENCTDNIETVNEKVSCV

As for `COc1ccccc1N1CCN(CCC(c2ccccc2)c2ccccc2)CC1` [Ex. 1, 1-(3,3-diphenylpropyl)-4-(2-methoxyphenyl)piperazine hydrochloride], the pKi in assay [1] is 6.84; in assay [2] (setting [5]), 6.49; in assay [3] (setting [6]), 8.41.
In the case of `c1ccc(C(CCN2CCN(c3cccc4c3OCCO4)CC2)c2ccccc2)cc1` [Ex. 2, 1-(3,3-diphenylpropyl)-4-[5-(2,3-dihydro-1,4-benzodioxinyl)]piperazine methanesulphonate], the pKi in assay [1] is 6.68; in assay [2] (setting [5]) it was 6.80; in assay [3] (setting [6]), 9.22.
With `COc1ccccc1N1CCN(CCN(c2ccccn2)c2ccccn2)CC1.Cl` [Ex. 5, 1-[N-N-bis-(2-pyridyl)-2-aminoethyl]-4-(2-methoxyphenyl)piperazine hydrochloride], in assay [4] (setting [7]), the ED10min was 0.523 mg/kg. Moreover, the “ED50 (frequency)” value in assay [4] (intravenous administration, anaesthetized rats, extrapolated dose inducing a reduction of the number of contractions >30% in 50% of treated rats) is 0.077 mg/kg.
As to `COc1ccccc1N1CCN(CCC(C#N)(c2ccccn2)c2ccccn2)CC1` [Ex. 6, 1-[3-cyano-3,3-bis-(2-pyridyl)propyl]-4-(2-methoxyphenyl)piperazine], in assay [4] (setting [8]), the ED50 was 0.093 mg/kg. In assay [4] (setting [7]), the ED10min was 0.225 mg/kg. Also, the values for the pKi in assay [1] and in assay [3] were 5.90 and 7.88, respectively.
For `COc1ccccc1N1CCN(CCC(C#N)(c2ccccc2)c2ccccn2)CC1.Cl.Cl` (stereo not shown) [Ex. 7, 1-[3-cyano-3-phenyl-3-(2-pyridyl)propyl]-4-(2-methoxyphenyl)piperazine dihydrochloride], the ED50 in assay [4] (iv, read-out: ED50 (frequency)) was 0.018 mg/kg. The ED10min in assay [4] (setting [7]) was 0.078 mg/kg. The values for the pKi in assay [1], in assay [2] and in assay [3] (setting [6]) were 6.40, 6.85 and 8.11, respectively.
Turning to `COc1ccccc1N1CCN(CCC(c2ccccn2)c2ccccn2)CC1` [Ex. 8, 1-[3,3-bis-(2-pyridyl)propyl]-4-(2-methoxyphenyl)piperazine], the ED50 in assay [4] (setting [8]) was 0.0025 mg/kg. For the same compound, the ED10min in assay [4] (setting [7]) was 0.074 mg/kg. Besides, the figures for the pKi in assay [1], in assay [2] (setting [5]) and in assay [3] (setting [6]) were 6.72, 6.49 and 8.40, respectively.
Regarding `COc1ccccc1N1CCN(CCN(c2ccccn2)c2ccccc2[N+](=O)[O-])CC1` [Ex. 11, 1-[N-(2-nitrophenyl)-N-(2-pyridyl)-2-aminoethyl]-4-(2-methoxyphenyl)-piperazine], the ED50 in assay [4] (setting [8]) is 0.024 mg/kg. The ED10min in assay [4] (setting [7]) is 0.162 mg/kg. Besides, the pKi in assay [1] is 7.20; in assay [3] (setting [6]), 8.17.
For `COc1ccccc1N1CCN(CCC(C#N)(c2ccccc2)c2ccccc2[N+](=O)[O-])CC1` (stereo not shown) [Ex. 12, 1-[3-cyano-3-(2-nitrophenyl)-3-phenylpropyl]-4-(2-methoxyphenyl)piperazine], the pKi in assay [1] was 6.65; in assay [2] (setting [5]) it was 6.10; in assay [3], 8.84.
`COc1ccccc1N1CCN(CCC(C(N)=O)(c2ccccc2)c2ccccc2[N+](=O)[O-])CC1` (stereo not shown) [Ex. 13, 1-[3-aminocarbonyl-3-(2-nitrophenyl)-3-phenylpropyl]-4-(2-methoxyphenyl)-piperazine]: the ED50 in assay [4] (setting [8]) is 0.084 mg/kg. The figures for the pKi in assay [1] and in assay [3] were 6.44 and 8.64, respectively.
Consider `COc1ccccc1N1CCN(CCC(C(N)=O)(c2ccccn2)c2ccccc2[N+](=O)[O-])CC1` (stereo not shown) [Ex. 17, 1-[3-aminocarbonyl-3-(2-nitrophenyl)-3-(2-pyridyl)propyl]-4-(2-methoxyphenyl)-piperazine], for which the pKi in assay [1] was 6.51; in assay [3], 8.29.
Consider `Cc1c(-c2ccccc2)oc2c(C(=O)OCCN3CCCCC3)cccc2c1=O` [Flavoxate, reference compound], for which the “effect on the amplitude of the bladder contractions (in words)” value in assay [4] (setting [7]) is “did not affect the amplitude of the contractions”. The ED10min in assay [4] (intravenous administration, anaesthetized rats, in µg/kg) is reported as over 10000.
Consider `CN(C)CCCN1c2ccccc2CCc2ccccc21` [Imipramine, reference compound], for which the ED50 in assay [4] (setting [9]) is 2.93 mg/kg. The ED50 in assay [4] (setting [8]) is 4.93 mg/kg. In assay [4] (setting [7]), the “effect on the amplitude of the bladder contractions (in words)” value is on record as “did not affect the amplitude of the contractions” and the ED10min was over 6 mg/kg.
As for `CCN(CC)CC#CCOC(=O)C(O)(c1ccccc1)C1CCCCC1` (stereo not shown) [Oxybutynin, reference compound], the median effective dose (ED50) in assay [4] (setting [9]) was 0.24 mg/kg; in assay [4] (setting [8]), 10 mg/kg. In addition, the ED10min in assay [4] (setting [7]) is 7.77 mg/kg.
